Patent US20190203409A1, “ANTIBACTERIAL REGENERATED CELLULOSIC FIBERS AND PROCESS OF PREPARATION THEREOF” (GRASIM INDUSTRIES LIMITED, priority 2016, published 2019)

Tested on: S. Aureus
Test: AATCC 147-2013 antibacterial test
Format: cell-based
Conditions: 0.5% concentration to weight of cellulose
Protocol: An antibacterial agent is used in Standard VSF or Modal or Lyocell manufacturing process to improve antibacterial performance of fiber. A small amount of chemical DDAC (i.e. 0.05-1% on weight of cellulose fiber) is infused by the way of: pouring or spraying or soaking or coating or padding or dipping and the like on the fiber during fiber manufacturing process and then fibers were dried and finally packed into the bales. The resultant fiber was then evaluated for antibacterial performance in external biological laboratory as per standard test methods.

Oc1cc(Cl)ccc1Oc1ccc(Cl)cc1Cl [Triclosan]
antibacterial activity (in words): did not demonstrate any antibacterial activity
